Consider one compound from patent US8673914B2, “Use of phosphodiesterase inhibitors for treating multidrug resistance” (St. John's University, priority 2011, dated 2014).

The experiment deals with KB-V1. The experiment is described as follows: MTT cytotoxicity/reversal assay (Example 2). It is filed as cell-based, human. The settings on record: alone. The procedure, abridged: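 Cells in DMEM with 10% bovine serum were preincubated ±reversal agent for 1 h, then exposed to graded chemotherapeutic drug concentrations for 68 h. MTT was added for 4 h, formazan dissolved in DMSO and A570 read. KB-V1 (ABCB1) was kept in 1 μg/mL vinblastine; HEK ABCG2-482-G2 cells were selected with 2 mg/mL G418.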

For `CC(=O)O[C@H]1C(=O)[C@@]2(C)[C@H]([C@H](OC(=O)c3ccccc3)[C@]3(O)C[C@H](OC(=O)[C@H](O)[C@@H](NC(=O)c4ccccc4)c4ccccc4)C(C)=C1C3(C)C)[C@]1(OC(C)=O)CO[C@@H]1C[C@@H]2O` [Paclitaxel, paclitaxel], the “fold-resistance, paclitaxel” value is listed as “(1079.6)”.
